Results taken from patent US7709634B2, “Amorphous form of rifaximin and processes for its preparation” (Apotex PharmAchem Inc., priority 2007, dated 2010).

Test: Polymorphic stability on exposure to ambient humidity, checked by PXRD
Assay type: physicochemical
Conditions: exposure to ambient humidity for a period of 10 days
From the text: High yield of amorphous form of rifaximin is isolated by the processes of the present invention and it has high chemical purity and retains acceptable amounts of residual solvents.

## CO[C@H]1/C=C/O[C@@]2(C)Oc3c(C)c(O)c4c(O)c(c5c(nc6cc(C)ccn65)c4c3C2=O)NC(=O)/C(C)=C\C=C\[C@H](C)[C@H](O)[C@@H](C)[C@@H](O)[C@@H](C)[C@H](OC(C)=O)[C@@H]1C [amorphous form of rifaximin, (2S,16Z,18E,20S,21S,22R,23R,24R,25S,26S,27S,28E)-5,6,21,23,25-pentahydroxy-27-methoxy-2,4,11,16,20,22,24,26-octamethyl-2,7-(epoxypentadeca-[1,11,13]trienimino)benzofuro[4,5-e]pyrido[1,2-α]-benzimidazole-1,15(2H)-dione,25-acetate]
  polymorphic form after exposure to ambient humidity, as indicated by PXRD spectroscopy: did not change the polymorphic form
